# “And” between values parts separate entries of the source, which are not always exact repeats. Equal entries are not always repeated. Where two headings read alike, the source gives them in different places.
# What was measured:
# [1] = tested on: CXCL10, IL17α, IL22, IL36γ, CCL20, SerpinB4 gene expression in Th17 stimulated human skin; test: Th17 stimulated human skin explants, RT-qPCR of biomarkers; type: cell-based; settings: Homo sapiens, 10 μM, calculated to Th17 stimulated control, three skin donors
# Text: (§1) Human skin biopsy tissue was stimulated to induce a Th17 immuno-phenotype using a method derived from Feghali-Bostwick et al. Induction of a Th17 phenotype in human skin—a mimic of dermal inflammatory diseases, Methods and Protocols, 2, 45 (2019). The pharmacodynamic assay described therein involves a similar paradigm to elicit a Th2 response and is used to evaluate the therapeutic potential of the active compounds (e.g., BETi1; and
# (§2) Freshly excised healthy human skin tissue from abdominoplasties is defatted, cleaned and sectioned into 7 mm biopsies. The biopsies are placed in Transwell® inserts with the epidermis apical and exposed to air and the dermis submerged in media in the basal chamber. The biopsies are pre-treated overnight at 37° C., 5% CO2 with different compounds and controls added to the media in the basal chamber.
# (§3) The next day, contents of the basal chamber is replaced with fresh media containing the test compound (listed below) and a stimulation cocktail for either Th2 inflammation (proprietary of service provider cocktail) or Th17 inflammation (mix of antibodies against CD3, CD28, IL-4, IFNγ and recombinant IL-1β, IL-6, IL-21, TGF-β). The biopsies are incubated at 37° C., 5% CO2 for a further 24 hrs.
# (§4) A list of all the treatments is provided below: • 1. Untreated control (for both stimulations) • 2. Th2 stimulated control • 3. Th17 stimulated control • 4. Th2+BETia at 0.01, 0.04, 0.16, 0.63, 2.50, and 10 μM • 5. Th2+BETi1 at 0.01, 0.04, 0.16, 0.63, 2.50, and 10 μM • 6. Th2+Ruxolitinib at 0.01, 0.04, 0.16, 0.63, 2.50, and 10 μM • 7. Th2+betamethasone valerate 210 μM (equivalent to 0.01%) • 8. Th17+BETia at 10 μM • 9. Th17+BETi1 at 10 μM • 10. Th17+Ruxolitinib at 10 μM • 11. Th17+betamethasone valerate 210 μM (equivalent to 0.01%)
# (§5) After harvesting, the biopsies are cut in half, and one half is homogenized and used for RNA extraction by standard methods and inflammatory pathways is assessed by RT-qPCR. The ability of BETi1 or BETia to inhibit the activity of up to six biomarkers per stimulation is reported as percent activity calculated to stimulated control and fold change in gene expression calculated to untreated control with respect to Th2 (IL4, IL13, IL31, CCL17, CCL26, CCL2) and Th17 (CXCL10, IL17α, IL22, IL36γ, CCL20, SerpinB4). Statistical analysis is performed on data sets from all 3 donors combined and compares the percent inhibition of each biomarker by each treatment calculated to its respective vehicle.
# (§6) qPCR values were calculated using the relative quantification approach outlined by Livak, et al (2001) (Section 9, Reference 2). The Ct values (threshold cycle) defined as the fractional cycle number at which the amount of amplified target reaches a fixed threshold, were normalised to the Ct value of an internal biomarker or ‘housekeeping gene’ (GAPDH). The higher limit of detection was set at a Ct value of 40, and any target having not reached Ct by 40 cycles was set to this value. The delta Ct values (dt(Ct)) refers to the Ct of the gene of interest minus the Ct of the internal biomarker. The ddt(Ct) is the dt(Ct) value of the gene minus the average dt(Ct) value of the untreated samples. The ddt(Ct) is converted to power by the equation; =power(2,dt(Ct)). Fold change was calculated as ratio of the power of the gene of interest divided by the average power of the untreated samples. This normalizes the untreated samplers to a value of 1. For the comparison of multiple skin donors, the stimulated samples were normalized to 100% maximum activity (such to normalize variability between different skin donors). Percent activity was calculated as the percent increase or decrease in stimulation compared to the stimulated samples set at 100% maximum activity. Percent change was calculated as: Inhibition=(100−(avg % activity/stimulated)*100). Statistical analysis was performed using One-way ANOVA with Dunnett's Multiple Comparisons (non parametric). […]
# [2] = tested on: IL4, IL13, IL31, CCL17, CCL26, CCL2 gene expression in Th2 stimulated human skin; test: Th2 stimulated human skin explants, RT-qPCR of biomarkers; type: cell-based; settings: Homo sapiens, calculated to Th2 stimulated control; for inhibition at 2.5 µM: 2.50 μM
# Text: as §1, §2, §3, §4, §5, §6
# [3] = tested on: MMP-9; test: RHE vitiligo model: MMP-9 secretion by ELISA; type: cell-based, human; settings: Rux 1.5%, 48 h
# Protocol: (§7) […] Three epidermis samples per condition are fixed in 4% formaldehyde solution and embedded in paraffin for further analysis (morphology analysis, melanin and melanocytes localisation/quantification). Three other epidermis samples per condition are put in a specific lysis buffer for total RNA extraction.
# (§8) At the end of the treatments, culture media is collected (from 3 epidermis per condition), aliquoted and stored at −20° C. until use in ELISA assays. The quantity of MMP-9 secreted by the epidermis at the end of the treatments is analysed using the human MMP-9 Quantikine ELISA kit (Bio-Techne; DMP900). The secretion of E-cadherin in culture media is measured using to human E-cadherin Quantikine ELISA kit (Bio-Techne; DCADE0) dedicated for the measurement of natural human E-cadherin in culture supernates, serum, plasma, urine, and saliva.
# (§9) The ELISAs are performed following the instructions of the supplier. The quantities of MMP-9 and E-cadherin are determined by comparisons with standard curves performed with recombinant human MMP-9 or E-cadherin provided in the kits.
# (§10) Quantification of secretion of MMP-9 and E-cadherin by ELISA from collected culture medium was conducted in accordance with Method E. The results, shown in FIG. 5A and FIG. 5B are based on Tables 23 and 24 respectively and presented in percentage of release in comparison to the stimulated control. A statistical analysis (student t-test) was performed to compare the effects of the treatments with the formulations to the vehicle (with $: 0.05>p>0.01; $$: 0.01>p>0.001; and $$$: p<0.001). The same analysis was performed to compare the effects of the vehicle and of the unstimulated control to the stimulated control (with *: 0.05>p>0.01; **: 0.01>p>0.001; and ***: p<0.001). The analysis was performed from three replicates per condition (n=3). The mean of the three values and the standard deviation are presented on the histograms in FIG. 5A and FIG. 5B. As shown in Table 21 and FIG. 5A and consistent with the results of Part A, MMP-9 secretion was increased following the stimulation with the cytokines, which validates the assay.
# [4] = tested on: E-cadherin; test: RHE vitiligo model: E-cadherin secretion by ELISA; type: cell-based, human; settings: Rux 1.5%, 48 h
# Protocol: as §7, §8, §9, §10
# [5] = tested on: anti collagen antibodies induced arthritis (ACAIA); test: ACAIA mice: hot plate withdrawal latency; type: in vivo, Balb/c mice
# Protocol: On days 0, 5 and 11 animals are placed on hot plate apparatus (53±1° C.) and the time until the first response is observed and recorded.
# [6] = TNF-α/IFN-γ stimulated RHE, replicates N1-N3
# [7] = culture medium of RHE, TNF-α 12 ng/ml/IFN-γ 12 ng/ml
# [8] = culture medium of RHE, TNF-α 12 ng/ml/IFN-γ 12 ng/ml, replicates N1-N3
smiles,measurement,setting,value
CCNC(=O)c1cc2c(-c3ccn(C)c(=O)c3Oc3c(C)cc(F)cc3C)cn(C)c(=O)c2[nH]1 [BETia],inhibition at 10 µM,[1]; read-out: % inhibition CCL20,40.1%
same,inhibition at 10 µM,[1]; read-out: % inhibition CXCL10,71.3%
same,inhibition at 10 µM,[1]; read-out: % inhibition IL22,79.7%
same,inhibition at 10 µM,[1]; read-out: % inhibition IL36γ,78.2%
same,inhibition at 10 µM,[1]; read-out: % inhibition Serpinβ4,71.2%
same,inhibition at 0.01 µM,[2]; read-out: % Inhibition CCL17,28.2%
same,inhibition at 0.01 µM,[2]; read-out: % Inhibition CCL26,8.3%
same,inhibition at 0.01 µM,[2]; read-out: % Inhibition IL31,< 0%
same,inhibition at 0.01 µM,[2]; read-out: % inhibition CCL2,< 0%
same,inhibition at 0.01 µM,[2]; read-out: % inhibition IL4,< 0%
same,inhibition at 0.01 µM,[2]; read-out: % inhibition IL13,22%
same,inhibition at 0.04 µM,[2]; read-out: % Inhibition CCL26,~38%
same,inhibition at 0.04 µM,[2]; read-out: % Inhibition IL31,< 0%
same,inhibition at 0.04 µM,[2]; read-out: % inhibition CCL2,< 0%
same,inhibition at 0.04 µM,[2]; read-out: % inhibition IL4,< 0%
same,inhibition at 0.04 µM,[2]; read-out: % inhibition IL13,15.8%
same,inhibition at 0.16 µM,[2]; read-out: % Inhibition CCL17,31.8%
same,inhibition at 0.16 µM,[2]; read-out: % Inhibition CCL26,46.3%
same,inhibition at 0.16 µM,[2]; read-out: % Inhibition IL31,19.1%
same,inhibition at 0.16 µM,[2]; read-out: % inhibition CCL2,< 0%
same,inhibition at 0.16 µM,[2]; read-out: % inhibition IL4,56.8%
same,inhibition at 0.16 µM,[2]; read-out: % inhibition IL13,27.7%
same,inhibition at 0.63 µM,[2]; read-out: % Inhibition CCL17,25.4%
same,inhibition at 0.63 µM,[2]; read-out: % Inhibition CCL26,2.8%
same,inhibition at 0.63 µM,[2]; read-out: % inhibition CCL2,< 0%
same,inhibition at 0.63 µM,[2]; read-out: % inhibition IL13,22.3%
same,inhibition at 2.5 µM,[2]; read-out: % Inhibition CCL17,30%
same,inhibition at 2.5 µM,[2]; read-out: % Inhibition CCL26,8%
same,inhibition at 2.5 µM,[2]; read-out: % inhibition CCL2,< 0%
same,inhibition at 2.5 µM,[2]; read-out: % inhibition IL4,57.5%
same,inhibition at 2.5 µM,[2]; read-out: % inhibition IL13,24.9%
same,inhibition at 10 µM,[2]; read-out: % Inhibition CCL26,~8%
same,inhibition at 10 µM,[2]; read-out: % inhibition CCL2,21.5%
same,inhibition at 10 µM,[2]; read-out: % inhibition IL4,~76%
same,inhibition at 10 µM,[2]; read-out: % inhibition IL13,53.4%
N#CC[C@H](C1CCCC1)n1cc(-c2ncnc3[nH]ccc23)cn1 [Rux],MMP-9 (% stimulated ctl) Mean,[3]; TNF-α/IFN-γ stimulated RHE,11%
same,MMP-9 (% stimulated ctl),[3]; [6],2% and 28% and 4%
same,Mean conc MMP-9,[3]; [7],2.0 ng/mL
same,Conc MMP-9,[3]; [8],0.4 ng/mL and 4.9 ng/mL and 0.7 ng/mL
same,E-Cad (% stimulated ctl) Mean,[4]; TNF-α/IFN-γ stimulated RHE,160%
same,E-Cad (% stimulated ctl),[4]; [6],77% and 247% and 155%
same,Mean conc E-Cad,[4]; [7],3.7 ng/mL
same,Conc E-Cad,[4]; [8],1.8 ng/mL and 5.7 ng/mL and 3.6 ng/mL
C[C@@H]1C[C@H]2[C@@H]3CCC4=CC(=O)C=C[C@]4(C)[C@@]3(F)[C@@H](O)C[C@]2(C)[C@@]1(O)C(=O)CO [Dex],Hot Plate Change in withdrawal latency (Avg.),"[5]; 1 mg/kg IA, Baseline",11.71 s
same,Hot Plate Change in withdrawal latency (Avg.),"[5]; 1 mg/kg IA, Day 5",10.14 s
same,Hot Plate Change in withdrawal latency (Avg.),"[5]; 1 mg/kg IA, Day 11",12.86 s
same,Hot Plate Change in withdrawal latency (Avg.),"[5]; 1 mg/kg IP, Baseline",11.86 s
same,Hot Plate Change in withdrawal latency (Avg.),"[5]; 1 mg/kg IP, Day 5",12.43 s
same,Hot Plate Change in withdrawal latency (Avg.),"[5]; 1 mg/kg IP, Day 11",12.29 s

# Source: patent US20250339409A1, “USES OF PAN BET INHIBITORS” (VYNE THERAPEUTICS INC., priority 2021, published 2025)
